Data published in PubChem BioAssay AID2305 (GlaxoSmithKline (GSK), 2010).
“And” between values parts separate entries of the source, which are not always exact repeats. Equal entries are not always repeated.

tested on: P. falciparum 3D7 growth, pLDH absorbance; assay: blood-stage malaria parasite growth potency – strain 3D7, dose response (AID 2305)

`Cc1ccc(O)cc1Nc1ccnc2cc(-c3csc(CNCCN4CCOCC4)n3)ccc12` and `CC[C@H]1CN(C/C=C/c2ccc(OC)cc2)CC[C@H]1CCCc1ccnc2ccc(O)cc12` are within 1.5-fold of each other in IC50: 880 nM for the first, 660 nM for the second.

`N#Cc1ccc(N(CCNS(=O)(=O)c2cc(Br)c(Cl)s2)Cc2ccccc2C(F)(F)F)cc1C(F)(F)F` and `Cc1c(S(=O)(=O)Nc2ccc3ccn(CCN(C)C)c3c2)sc2ccc(Cl)cc12` are within 1.5-fold of each other in IC50: 860 nM for the first, 920 nM for the second.

`COc1ccc(-c2ccc(NC(=O)c3cccc(F)c3)cc2)cc1CNC(C)C` and `CN(Cc1cccc(F)c1)C1CCN(c2cc(NC(=O)c3ccc(F)cc3)ccn2)CC1` are within 1.5-fold of each other in IC50: 810 nM for the first, 1160 nM for the second.

Going from `O=C(CCN(Cc1ccco1)c1nc(-c2ccc(F)cc2)nc2ccccc12)NC1CC1` to `Nc1ccnc2ccc(NC(=O)CCCCCc3ccccc3)cc12`, the IC50 falls from 1580 nM to 860 nM (1.8-fold). The second is the more potent here.

First: O=C(Oc1ccc(C2CNCCc3c2cc(OC(=O)c2ccc(O)cc2)c(OC(=O)c2ccc(O)cc2)c3Cl)cc1)c1ccc(O)cc1 (stereo not drawn)
Second: COc1ccc(C2CC(=O)C3=C(C2)NC(C)=C(C(=O)OC(C)C)C3c2ccc(O)cc2)cc1OC (stereo not drawn)
The IC50 of the first is 3.5-fold higher: 980 nM for the first, 280 nM for the second.

`NC(N)=NN=Cc1c[nH]c2ccc(-c3ccccc3)cc12` and `O=C(Cc1cccc(Cl)c1)Nc1cccc(-c2c[nH]c3nc(Nc4ccccc4)ncc23)c1` are within 1.5-fold of each other in IC50: 530 nM for the first, 680 nM for the second.

`CS(=O)(=O)N1CC2(CCN(CCC(NC(=O)NCc3ccccc3Cl)c3ccc(Cl)c(Cl)c3)CC2)c2ccccc21` (stereo not drawn) and `O=C1COC2(CN1CC1CCN(Cc3ccc(O)c(Cl)c3)C1)c1ccccc1-c1ccccc12` (stereo not drawn) are within 1.5-fold of each other in IC50: 1110 nM for the first, 1060 nM for the second.

First: Clc1ccc(Nc2nc(-c3ccccn3)cs2)nc1
Second: CCNCc1ccc(-c2cc3ncnc(Nc4ccc(OCc5cccc(F)c5)c(Cl)c4)c3s2)[nH]1
The IC50 of the first is 7-fold higher: 770 nM for the first, 110 nM for the second.

First: COc1ccc(-c2nc(NC(=O)COc3ccc(C(C)=O)cc3)sc2C)cc1
Second: COc1cc(-c2cc(-c3ccc(S(C)(=O)=O)cc3)cnc2N)ccc1O
The IC50 of the first is 7.1-fold higher: 710 nM for the first, 100 nM for the second. The second is the more potent here.

`O=C(Nc1cccc(-c2nc3ccccc3s2)c1)c1ccccc1[N+](=O)[O-]` and `Cc1cc(NC(=O)c2ccc(S(=O)(=O)N(Cc3ccccc3)C(C)C)cc2)no1` are within 1.5-fold of each other in IC50: 770 nM for the first, 850 nM for the second.

First: Cc1cc(N(C)CCCN2CCCCC2)nc(Nc2ccc(Cl)cc2)n1
Second: Cc1cc(NCC2CCN(CC3CCCCC3)C2)nc(Nc2ccc(Cl)cc2)n1 (stereo not drawn)
The IC50 of the first is 3.9-fold lower: 190 nM for the first, 740 nM for the second. The first is the more potent here.

`CCCN(CCCCCCNCCc1ccc(Cl)cc1)CCc1ccc(O)c(O)c1` and `COc1ccc(CNCc2ccc(-c3ccc(CNCCc4ccccc4)cn3)cc2)cn1` are within 1.5-fold of each other in IC50: 940 nM for the first, 1010 nM for the second.

Going from `COc1ccc(-c2nc3cccnc3n2CC(=O)Nc2cc(Cl)c(Cl)cc2Cl)c(OC)c1` to `COC(=O)Cn1c(C2CCN(CC3CCN(C(=O)/C=C/c4ccc(Cl)c(Cl)c4)CC3)CC2)nc2ccccc21`, the IC50 rises from 720 nM to 1200 nM (1.7-fold).

`CCCN(CC)CCOC(=O)c1ccccc1` and `O=C(NCCCN1CCCC1=O)NCc1ccccc1` are within 1.5-fold of each other in IC50: 740 nM for the first, 820 nM for the second.

Compared with `O=C(NC1CC1)c1ccc(N2CCCCN2CCc2ccccc2)c(C(F)(F)F)c1`, `O=C(N[C@@H](Cc1ccccc1)C(=O)NC1CCCCCC1)c1ccc(O)c(-c2ccc(Cl)c(Cl)c2)c1` is 1.9-fold lower in IC50: 620 nM for the first, 330 nM for the second. The second is the more potent here.

`Cc1cc(=O)c(-c2ccc(Oc3cccc(Cl)c3)cc2)c(C)[nH]1` and `CC(C)(C)c1ccc(CN2CCC(CNC(=O)c3cc(-c4ccccc4Cl)cs3)C2)cc1` (stereo not drawn) are within 1.5-fold of each other in IC50: 600 nM for the first, 860 nM for the second.

First: COC(=O)Cn1c(C2CCN(CC3CCC(NC(=O)/C=C/c4ccc(Cl)c(Cl)c4)CC3)CC2)nc2ccccc21 (stereo not drawn)
Second: O=C(/C=C/c1ccc(Cl)c(Cl)c1)NCCCCCN1CCC(NC(=O)Nc2cc(Cl)cc(Cl)c2)CC1
The IC50 of the first is 1.6-fold higher: 1140 nM for the first, 720 nM for the second.

Going from `C=CCOC(=O)N1CCC(CNCc2cccc(-c3cccc(-c4nc5ccc(F)cc5[nH]4)c3)c2)C1` (stereo not drawn) to `O=C(Nc1ccc2c(c1)CCN2C1CCN(Cc2ccc(C(F)(F)F)cc2F)C1)c1ccco1` (stereo not drawn), the IC50 rises from 210 nM to 510 nM (2.4-fold). The first is the more potent here.

Compared with `Cc1nc2nc(N)nc(N)c2c(C)c1Cc1ccccc1Br`, `CCC(C)c1cnc2nc(N)nc(N)c2c1C` (stereo not drawn) is 7.3-fold higher in IC50: 60 nM for the first, 440 nM for the second.

First: CCCCCC(C)N=C(Nc1ccc([N+](=O)[O-])cc1O)Nc1ccccc1Br (stereo not drawn)
Second: CCC[C@@H]([C@@H](CC1CCCCC1)C(=O)N[C@H](C(=O)Nc1nccs1)[C@@H](C)OCc1ccccc1)N(O)C=O
The IC50 of the first is 7.8-fold higher: 620 nM for the first, 80 nM for the second.

`Cc1cc(N[C@@H](CC(C)C)C(=O)NC2CCCC2)nc(NCCc2ccc(F)cc2)n1` and `CCN(CC)CCN(Cc1ccc(-c2ccc(C(F)(F)F)cc2)nc1)C(=O)Cn1c(SCc2ccc(F)cc2)nc(=O)c2sccc21` are within 1.5-fold of each other in IC50: 790 nM for the first, 840 nM for the second.

`Cc1ccc(-c2nnc(Nc3ccc(C(=O)N4CCCCC4)cc3)c3ccccc23)cc1S(=O)(=O)NCC1CCCO1` (stereo not drawn) and `CN1CCCN(Cc2ccc(-c3ccc(NC(=O)c4ccc(C#N)cc4)cc3)cc2)CC1` are within 1.5-fold of each other in IC50: 710 nM for the first, 1020 nM for the second.

Compared with `CC1CCN(CC[C@H]2CCCN2S(=O)(=O)c2cccc(NC(=O)Nc3ccc(C(F)(F)F)cc3)c2)CC1`, `CN1CCCC1CCOc1ccc2c(c1)N(C(=O)Nc1cc(Br)cc(C(F)(F)F)c1)CC2` (stereo not drawn) is 2.9-fold lower in IC50: 720 nM for the first, 250 nM for the second.

`CCc1cn(CC(=O)N(CCOc2ccc(-c3ccc(C(F)(F)F)cc3)cc2)CCN(CC)CC)c(SCc2ccc(F)cc2)nc1=O` showed an IC50 of 780 nM.

In the case of `O=C(/C=C/c1ccc(C(F)(F)F)cc1)NC1CCC(CN2CCC(c3c[nH]c4ccccc34)CC2)CC1` (stereo not drawn), the IC50 is reported as 960 nM and 370 nM.
